From patent US10246453B2, “Benzenesulfonamide compounds and their use as therapeutic agents” (Xenon Pharmaceuticals Inc., priority 2016, dated 2019)
Structures can show the parent of a compound that is named as a salt.

How the values were obtained:
NaV1.1 = NaV1.1 (Homo sapiens (Human), UniProt P35498); assay: Sodium Influx Assay (Flux), NaV1.1; assay type: cell-based; settings: Trex HEK293 cells, ANG2 dye; arithmetic mean
NaV1.6 = NaV1.6 (Homo sapiens (Human), UniProt Q9UQD0); assay: Sodium Influx Assay (Flux), NaV1.6; settings: read-out: Flux NaV1.6 IC50; Trex HEK293 cells, ANG2 dye; arithmetic mean
NaV1.5 = NaV1.5 (Homo sapiens (Human), UniProt Q14524); assay: Sodium Influx Assay (Flux), NaV1.5; settings: read-out: Flux NaV1.5 IC50; Trex HEK293 cells, ANG2 dye; arithmetic mean
Chain of NaV1.5 (Q14524 other isoform, or with tags, fused parts or gaps): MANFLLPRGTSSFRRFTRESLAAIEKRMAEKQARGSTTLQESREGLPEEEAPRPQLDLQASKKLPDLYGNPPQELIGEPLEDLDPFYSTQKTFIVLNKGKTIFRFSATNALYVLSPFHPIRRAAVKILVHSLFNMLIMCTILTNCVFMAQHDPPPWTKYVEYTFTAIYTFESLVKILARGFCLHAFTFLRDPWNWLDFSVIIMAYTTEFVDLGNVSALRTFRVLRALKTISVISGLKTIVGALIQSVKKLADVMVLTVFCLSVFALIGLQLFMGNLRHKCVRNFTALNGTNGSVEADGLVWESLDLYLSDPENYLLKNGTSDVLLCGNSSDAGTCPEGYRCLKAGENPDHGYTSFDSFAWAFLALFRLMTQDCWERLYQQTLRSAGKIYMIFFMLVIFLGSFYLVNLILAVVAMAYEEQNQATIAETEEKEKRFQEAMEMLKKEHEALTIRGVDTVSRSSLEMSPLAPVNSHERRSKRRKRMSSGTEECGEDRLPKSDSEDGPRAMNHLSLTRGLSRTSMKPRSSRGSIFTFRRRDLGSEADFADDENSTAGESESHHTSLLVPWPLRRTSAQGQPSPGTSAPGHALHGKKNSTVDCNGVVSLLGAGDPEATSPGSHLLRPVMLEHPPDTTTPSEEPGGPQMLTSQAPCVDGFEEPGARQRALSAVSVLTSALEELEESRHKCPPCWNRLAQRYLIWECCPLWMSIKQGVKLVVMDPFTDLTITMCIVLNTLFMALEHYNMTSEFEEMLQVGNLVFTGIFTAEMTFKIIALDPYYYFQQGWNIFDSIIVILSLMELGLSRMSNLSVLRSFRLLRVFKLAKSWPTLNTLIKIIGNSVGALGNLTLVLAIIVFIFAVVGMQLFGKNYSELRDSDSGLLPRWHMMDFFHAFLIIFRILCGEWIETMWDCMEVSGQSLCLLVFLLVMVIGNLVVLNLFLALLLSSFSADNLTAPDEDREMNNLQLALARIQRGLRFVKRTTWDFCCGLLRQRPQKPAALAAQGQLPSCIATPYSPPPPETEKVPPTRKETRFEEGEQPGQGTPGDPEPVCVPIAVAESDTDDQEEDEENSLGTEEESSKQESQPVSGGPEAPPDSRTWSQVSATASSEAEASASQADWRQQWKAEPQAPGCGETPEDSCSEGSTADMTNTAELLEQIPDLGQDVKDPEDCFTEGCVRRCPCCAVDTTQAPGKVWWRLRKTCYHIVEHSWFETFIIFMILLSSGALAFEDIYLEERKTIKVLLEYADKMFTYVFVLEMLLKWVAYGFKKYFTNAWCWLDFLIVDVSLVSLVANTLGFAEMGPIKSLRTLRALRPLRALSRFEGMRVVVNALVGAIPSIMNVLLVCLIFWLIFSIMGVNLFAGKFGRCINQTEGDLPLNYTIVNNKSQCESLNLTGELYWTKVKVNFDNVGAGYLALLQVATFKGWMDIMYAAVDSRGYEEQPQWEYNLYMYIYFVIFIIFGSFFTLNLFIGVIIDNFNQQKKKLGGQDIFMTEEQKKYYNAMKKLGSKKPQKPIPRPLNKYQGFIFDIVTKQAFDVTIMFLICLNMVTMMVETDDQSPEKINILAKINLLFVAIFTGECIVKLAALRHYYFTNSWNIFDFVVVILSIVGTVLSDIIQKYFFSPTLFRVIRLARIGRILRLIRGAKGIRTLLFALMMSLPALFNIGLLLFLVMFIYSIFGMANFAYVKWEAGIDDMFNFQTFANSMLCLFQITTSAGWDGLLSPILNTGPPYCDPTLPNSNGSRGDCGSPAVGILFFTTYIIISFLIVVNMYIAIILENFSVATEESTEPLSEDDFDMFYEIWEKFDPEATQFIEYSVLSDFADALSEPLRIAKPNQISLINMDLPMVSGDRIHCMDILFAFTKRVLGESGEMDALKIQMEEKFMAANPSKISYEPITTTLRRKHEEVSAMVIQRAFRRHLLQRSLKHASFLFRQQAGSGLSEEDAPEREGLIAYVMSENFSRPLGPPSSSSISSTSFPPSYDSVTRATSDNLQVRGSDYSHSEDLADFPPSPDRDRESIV

Structure (SMILES) | IC50 (NaV1.1) [µM] | IC50 (NaV1.6) [µM] | IC50 (NaV1.5) [µM]
CN(c1cc(F)c(S(=O)(=O)Nc2cscn2)cc1Cl)[C@H]1CCN(Cc2cc(Cl)ccc2F)C1 [Example 195, (S)-5-chloro-4-((1-(5-chloro-2-fluorobenzyl)pyrrolidin-3-yl)(methyl)amino)-2-fluoro-N-(thiazol-4-yl)benzenesulfonamide] | 5.1 | 1.49 | 3.78
CN(c1cc(F)c(S(=O)(=O)Nc2cscn2)cc1Cl)[C@H]1CCN(CCCc2ccccc2)C1 [Example 196, (S)-5-chloro-2-fluoro-4-(methyl(1-(3-phenylpropyl)pyrrolidin-3-yl)amino)-N-(thiazol-4-yl)benzenesulfonamide] | 1.87 | 1.26 | 8.2
CN(c1cc(F)c(S(=O)(=O)Nc2cscn2)cc1Cl)[C@H]1CCN(Cc2cc(Cl)ccc2Cl)C1 [Example 197, (S)-5-chloro-4-((1-(2,5-dichlorobenzyl)pyrrolidin-3-yl)(methyl)amino)-2-fluoro-N-(thiazol-4-yl)benzenesulfonamide] | 5.2 | 3.33 | 3.17
CN(c1cc(F)c(S(=O)(=O)Nc2cscn2)cc1Cl)[C@H]1CCN(Cc2ccccc2Cl)C1 [Example 198, (S)-5-chloro-4-((1-(2-chlorobenzyl)pyrrolidin-3-yl)(methyl)amino)-2-fluoro-N-(thiazol-4-yl)benzenesulfonamide] | 5.36 | 1.46 | 4.7
CN(C)c1ccc(CN2CC[C@H](N(C)c3cc(F)c(S(=O)(=O)Nc4cscn4)cc3Cl)C2)cc1 [Example 199, (S)-5-chloro-4-((1-(4-(dimethylamino)benzyl)pyrrolidin-3-yl)(methyl)amino)-2-fluoro-N-(thiazol-4-yl)benzenesulfonamide] | 7.88 | 8.42 | > 30
CN(c1cc(F)c(S(=O)(=O)Nc2cscn2)cc1Cl)[C@H]1CCN(CCOCc2ccccc2)C1 [Example 200, (S)-4-((1-(2-(benzyloxy)ethyl)pyrrolidin-3-yl)(methyl)amino)-5-chloro-2-fluoro-N-(thiazol-4-yl)benzenesulfonamide] | 4.97 | 4.62 | 7.21
Cc1ccc(CN2CC[C@H](N(C)c3cc(F)c(S(=O)(=O)Nc4cscn4)cc3Cl)C2)cc1 [Example 201, (S)-5-chloro-2-fluoro-4-(methyl(1-(4-methylbenzyl)pyrrolidin-3-yl)amino)-N-(thiazol-4-yl)benzenesulfonamide] | 5.74 | 3.32 | 15
CN(c1cc(F)c(S(=O)(=O)Nc2cscn2)cc1Cl)[C@H]1CCN(Cc2ccc[nH]2)C1 [Example 202, (S)-4-((1-((1H-pyrrol-2-yl)methyl)pyrrolidin-3-yl)(methyl)amino)-5-chloro-2-fluoro-N-(thiazol-4-yl)benzenesulfonamide] | 25.1 | 4.32 | > 30
Cc1cccc(C)c1CN1CC[C@H](N(C)c2cc(F)c(S(=O)(=O)Nc3cscn3)cc2Cl)C1 [Example 203, (S)-5-chloro-4-((1-(2,6-dimethylbenzyl)pyrrolidin-3-yl)(methyl)amino)-2-fluoro-N-(thiazol-4-yl)benzenesulfonamide] | 5.74 | 4.15 | 6.7
Cc1ccc(CN2CC[C@H](N(C)c3cc(F)c(S(=O)(=O)Nc4cscn4)cc3Cl)C2)o1 [Example 204, (S)-5-chloro-2-fluoro-4-(methyl(1-((5-methylfuran-2-yl)methyl)pyrrolidin-3-yl)amino)-N-(thiazol-4-yl)benzenesulfonamide] | > 30 | 1.78 | > 30
CN(c1cc(F)c(S(=O)(=O)Nc2cscn2)cc1Cl)[C@H]1CCN(Cc2cccc(Cl)c2F)C1 [Example 205, (S)-5-chloro-4-((1-(3-chloro-2-fluorobenzyl)pyrrolidin-3-yl)(methyl)amino)-2-fluoro-N-(thiazol-4-yl)benzenesulfonamide] | 10.3 | 1.16 | 8
CN(c1cc(F)c(S(=O)(=O)Nc2cscn2)cc1Cl)[C@H]1CCN(Cc2cc(F)ccc2F)C1 [Example 207, (S)-5-chloro-4-((1-(2,5-difluorobenzyl)pyrrolidin-3-yl)(methyl)amino)-2-fluoro-N-(thiazol-4-yl)benzenesulfonamide] | 7.31 | 1.38 | 7.48
CN(c1cc(F)c(S(=O)(=O)Nc2cscn2)cc1Cl)[C@H]1CCN(Cc2cccc(Cl)c2)C1 [Example 208, (S)-5-chloro-4-((1-(3-chlorobenzyl)pyrrolidin-3-yl)(methyl)amino)-2-fluoro-N-(thiazol-4-yl)benzenesulfonamide] | 4.41 | 1.09 | 5.69
CN(c1cc(F)c(S(=O)(=O)Nc2cscn2)cc1Cl)[C@H]1CCN(Cc2ccccc2O)C1 [Example 209, (S)-5-chloro-2-fluoro-4-((1-(2-hydroxybenzyl)pyrrolidin-3-yl)(methyl)amino)-N-(thiazol-4-yl)benzenesulfonamide] | 20 | 2.15 | 20.2
CN(c1cc(F)c(S(=O)(=O)Nc2cscn2)cc1Cl)[C@H]1CCN(Cc2ccccc2OC(F)F)C1 [Example 210, (S)-5-chloro-4-((1-(2-(difluoromethoxy)benzyl)pyrrolidin-3-yl)(methyl)amino)-2-fluoro-N-(thiazol-4-yl)benzenesulfonamide] | 7.13 | 1.27 | 8.36
Cc1cc(CN2CC[C@H](N(C)c3cc(F)c(S(=O)(=O)Nc4cscn4)cc3Cl)C2)ccc1F [Example 211, (S)-5-chloro-2-fluoro-4-((1-(4-fluoro-3-methylbenzyl)pyrrolidin-3-yl)(methyl)amino)-N-(thiazol-4-yl)benzenesulfonamide] | 4.98 | 2.92 | 7.85
CN(c1cc(F)c(S(=O)(=O)Nc2cscn2)cc1Cl)[C@H]1CCN(Cc2cccc(F)c2)C1 [Example 212, (S)-5-chloro-2-fluoro-4-((1-(3-fluorobenzyl)pyrrolidin-3-yl)(methyl)amino)-N-(thiazol-4-yl)benzenesulfonamide] | 10.5 | 2.14 | 18.9
CN(c1cc(F)c(S(=O)(=O)Nc2cscn2)cc1Cl)[C@H]1CCN(Cc2cccc(F)c2F)C1 [Example 213, (S)-5-chloro-4-((1-(2,3-difluorobenzyl)pyrrolidin-3-yl)(methyl)amino)-2-fluoro-N-(thiazol-4-yl)benzenesulfonamide] | 16.1 | 3.46 | 12.8
CN(c1cc(F)c(S(=O)(=O)Nc2cscn2)cc1Cl)[C@H]1CCN(Cc2cccc(C(F)(F)F)c2)C1 [Example 214, (S)-5-chloro-2-fluoro-4-(methyl(1-(3-(trifluoromethyl)benzyl)pyrrolidin-3-yl)amino)-N-(thiazol-4-yl)benzenesulfonamide] | 2.94 | 1.79 | 5.54
CN(c1cc(F)c(S(=O)(=O)Nc2cscn2)cc1Cl)[C@H]1CCN(Cc2cccs2)C1 [Example 215, (S)-5-chloro-2-fluoro-4-(methyl(1-(thiophen-2-ylmethyl)pyrrolidin-3-yl)amino)-N-(thiazol-4-yl)benzenesulfonamide] | 27.5 | 5.2 | > 30
Cc1ccnc(CN2CC[C@H](N(C)c3cc(F)c(S(=O)(=O)Nc4cscn4)cc3Cl)C2)c1 [Example 216, (S)-5-chloro-2-fluoro-4-(methyl(1-((4-methylpyridin-2-yl)methyl)pyrrolidin-3-yl)amino)-N-(thiazol-4-yl)benzenesulfonamide] | > 30 | 3.71 | > 30
CN(c1cc(F)c(S(=O)(=O)Nc2cscn2)cc1Cl)[C@H]1CCN(Cc2ccc(Br)cc2)C1 [Example 217, (S)-4-((1-(4-bromobenzyl)pyrrolidin-3-yl)(methyl)amino)-5-chloro-2-fluoro-N-(thiazol-4-yl)benzenesulfonamide] | 4.57 | 5.64 | 6.7
CN(c1cc(F)c(S(=O)(=O)Nc2cscn2)cc1Cl)[C@H]1CCN(Cc2ccccc2F)C1 [Example 218, (S)-5-chloro-2-fluoro-4-((1-(2-fluorobenzyl)pyrrolidin-3-yl)(methyl)amino)-N-(thiazol-4-yl)benzenesulfonamide] | 13.7 | 2 | 14.2
Cc1c(F)cccc1CN1CC[C@H](N(C)c2cc(F)c(S(=O)(=O)Nc3cscn3)cc2Cl)C1 [Example 220, (S)-5-chloro-2-fluoro-4-((1-(3-fluoro-2-methylbenzyl)pyrrolidin-3-yl)(methyl)amino)-N-(thiazol-4-yl)benzenesulfonamide] | 5.84 | 3.69 | 8.19
Cc1c(OC2CCN(Cc3ccccc3)CC2)cc(F)c(S(=O)(=O)Nc2nccs2)c1F [Example 223, 4-((1-benzylpiperidin-4-yl)oxy)-2,6-difluoro-3-methyl-N-(thiazol-2-yl)benzenesulfonamide 2,2,2-trifluoroacetate] | 2.58 | 0.009 | 23.2
Cc1c(N(C)[C@H]2CCN(Cc3cccc(C(F)(F)F)n3)C2)cc(F)c(S(=O)(=O)Nc2cscn2)c1F [Example 224, (S)-2,6-difluoro-3-methyl-4-(methyl(1-((6-(trifluoromethyl)pyridin-2-yl)methyl)pyrrolidin-3-yl)amino)-N-(thiazol-4-yl)benzenesulfonamide 2,2,2-trifluoroacetate] | 8.89 | 0.024 | > 30
C[C@H](c1ccccc1)N1CCC(Oc2ccc(S(=O)(=O)Nc3cscn3)c(F)c2Cl)CC1 [Example 227, (R)-3-chloro-2-fluoro-4-((1-(1-phenylethyl)piperidin-4-yl)oxy)-N-(thiazol-4-yl)benzenesulfonamide formate] | > 30 | 0.855 | > 30
